{"source": "patent US12433865B2", "about": "“Compositions comprising PGI2-receptor agonists and processes for the preparation thereof” (Arena Pharmaceuticals, Inc., priority 2018, dated 2025)", "test": "Release (dissolution) profile of capsules, USP Apparatus 2 (paddle)", "type": "physicochemical", "conditions": "for Release rate (percentage of Compound 1 released over time): 0.04 mg capsule, Poloxamer 188:food grade GMS 50:50, T = 0 (pre-curing)", "description": "USP Apparatus 2 (Paddle Apparatus) is described, for example, in the United States Pharmacopeial Convention, Feb. 1, 2012, Chapter <711> (“Dissolution”), incorporated by reference herein in its entirety. See http://www.usp.org/sites/default/files/usp_pdf/EN/USPNF/revisions/m99470-gc_711.pdf. The assembly from Apparatus 1 is used, except that a paddle formed from a blade and a shaft is used as the stirring element. The shaft is positioned so that its axis is not more than 2 mm from the vertical axis of the vessel at any point and rotates smoothly without significant wobble that could affect the results. The vertical center line of the blade passes through the axis of the shaft so that the bottom of the blade is flush with the bottom of the shaft. A distance of 25±2 mm between the bottom of the blade and the inside bottom of the vessel is maintained during the test. The metallic or suitably inert, rigid blade and shaft comprise a single entity. A suitable two-part detachable design may be used provided the assembly remains firmly engaged during the test. The paddle blade and shaft may be coated with a suitable coating so as to make them inert. The dosage unit is allowed to sink to the bottom of the vessel before rotation of the blade is started. A small, loose piece of nonreactive material, such as not more than a few turns of wire helix, may be attached to dosage units that would otherwise float. Other validated sinker devices may be used.\nUnless otherwise specified, the release profiles for capsules were measured using USP Apparatus 2 (paddle).\nAll release profiles disclosed in Tables 3c-3p were measured with USP Apparatus 2 (paddle) at 50 rpm in 500 mL of aqueous sodium phosphate at a concentration of 0.05 M (pH=6.8). The values in a given table relate to capsules obtained from the same batch. Values shown represent mean values over a number of dissolution tests (“n” in each table) in each case."}
{"compound": "O=C(O)COC[C@H]1CC[C@H](COC(=O)N(c2ccccc2)c2ccc(Cl)cc2)CC1", "note": "[Compound 1, 2-(((1r,4r)-4-(((4-chlorophenyl)(phenyl)carbamoyloxy)methyl)cyclohexyl)methoxy)acetic acid]", "values": [{"measurement": "Release rate (percentage of Compound 1 released over time)", "setting": "480 min", "value": 72.7, "unit": "%"}, {"measurement": "Release rate (percentage of Compound 1 released over time)", "setting": "600 min", "value": 79.8, "unit": "%"}, {"measurement": "Release rate (percentage of Compound 1 released over time)", "setting": "720 min", "value": 83.1, "unit": "%"}, {"measurement": "Release rate (percentage of Compound 1 released over time)", "setting": "735 min", "value": 84.6, "unit": "%"}, {"measurement": "change of release rate after storage", "setting": "0.04 mg of Compound 1 in Gelucire 50/13, storage at 40° C. and 75% RH for two weeks (FIG. 5)", "value": "rapid increase"}, {"measurement": "release rate relative to immediate-release composition", "setting": "0.5 mg Compound 1, Poloxamer 188:food grade GMS 70:30, 50:50 and 30:70 (FIGS. 8-10)", "value": "slower rate"}, {"measurement": "release rate after storage", "setting": "0.5 mg Compound 1, Poloxamer 188:food grade GMS 70:30, 50:50 and 30:70, storage at 40° C. and 75% RH for about one month (FIGS. 8-10)", "value": "substantially the same"}, {"measurement": "mean value (n = 6) of % of Compound 1 released", "setting": "Table 3c: size 4 capsule, 0.03 mg Compound 1, Poloxamer 188:food grade GMS 70:30, 20 min", "value": 14.8, "unit": "%"}, {"measurement": "mean value (n = 6) of % of Compound 1 released", "setting": "Table 3c: size 4 capsule, 0.03 mg Compound 1, Poloxamer 188:food grade GMS 70:30, 30 min", "value": 36.1, "unit": "%"}, {"measurement": "mean value (n = 6) of % of Compound 1 released", "setting": "Table 3c: size 4 capsule, 0.03 mg Compound 1, Poloxamer 188:food grade GMS 70:30, 45 min", "value": 65.4, "unit": "%"}, {"measurement": "mean value (n = 6) of % of Compound 1 released", "setting": "Table 3c: size 4 capsule, 0.03 mg Compound 1, Poloxamer 188:food grade GMS 70:30, 60 min", "value": 83.8, "unit": "%"}, {"measurement": "mean value (n = 6) of % of Compound 1 released", "setting": "Table 3c: size 4 capsule, 0.03 mg Compound 1, Poloxamer 188:food grade GMS 70:30, 90 min", "value": 95.5, "unit": "%"}, {"measurement": "mean value (n = 6) of % of Compound 1 released", "setting": "Table 3c: size 4 capsule, 0.03 mg Compound 1, Poloxamer 188:food grade GMS 70:30, 120 min", "value": 98.4, "unit": "%"}, {"measurement": "mean value (n = 4) of % of Compound 1 released", "setting": "Table 3e: size 4 capsule, 0.5 mg Compound 1, Poloxamer 188:food grade GMS 70:30, 30 min", "value": 17.7, "unit": "%"}, {"measurement": "mean value (n = 4) of % of Compound 1 released", "setting": "Table 3e: size 4 capsule, 0.5 mg Compound 1, Poloxamer 188:food grade GMS 70:30, 60 min", "value": 56.9, "unit": "%"}, {"measurement": "mean value (n = 4) of % of Compound 1 released", "setting": "Table 3e: size 4 capsule, 0.5 mg Compound 1, Poloxamer 188:food grade GMS 70:30, 120 min", "value": 95.1, "unit": "%"}, {"measurement": "mean value (n = 4) of % of Compound 1 released", "setting": "Table 3f: size 4 capsule, 0.5 mg Compound 1, Poloxamer 188:food grade GMS 70:30, 30 min", "value": 19.3, "unit": "%"}, {"measurement": "mean value (n = 4) of % of Compound 1 released", "setting": "Table 3f: size 4 capsule, 0.5 mg Compound 1, Poloxamer 188:food grade GMS 70:30, 60 min", "value": 61.9, "unit": "%"}, {"measurement": "mean value (n = 4) of % of Compound 1 released", "setting": "Table 3f: size 4 capsule, 0.5 mg Compound 1, Poloxamer 188:food grade GMS 70:30, 120 min", "value": 98.1, "unit": "%"}, {"measurement": "mean value (n = 4) of % of Compound 1 released", "setting": "Table 3g-1: Storage Time = 0, size 4 capsule, 0.5 mg Compound 1, Poloxamer 188:food grade GMS 70:30, 30 min", "value": 33.0, "unit": "%"}, {"measurement": "mean value (n = 4) of % of Compound 1 released", "setting": "Table 3g-1: Storage Time = 0, size 4 capsule, 0.5 mg Compound 1, Poloxamer 188:food grade GMS 70:30, 45 min", "value": 64.2, "unit": "%"}, {"measurement": "mean value (n = 4) of % of Compound 1 released", "setting": "Table 3g-1: Storage Time = 0, size 4 capsule, 0.5 mg Compound 1, Poloxamer 188:food grade GMS 70:30, 60 min", "value": 86.0, "unit": "%"}, {"measurement": "mean value (n = 4) of % of Compound 1 released", "setting": "Table 3g-2 (Storage Time = 2 weeks), first line, size 4 capsule, 0.5 mg Compound 1, Poloxamer 188:food grade GMS 70:30, 30 min", "value": 33.0, "unit": "%"}, {"measurement": "mean value (n = 4) of % of Compound 1 released", "setting": "Table 3g-2 (Storage Time = 2 weeks), first line, size 4 capsule, 0.5 mg Compound 1, Poloxamer 188:food grade GMS 70:30, 45 min", "value": 64.2, "unit": "%"}, {"measurement": "mean value (n = 4) of % of Compound 1 released", "setting": "Table 3g-2 (Storage Time = 2 weeks), first line, size 4 capsule, 0.5 mg Compound 1, Poloxamer 188:food grade GMS 70:30, 60 min", "value": 86.0, "unit": "%"}, {"measurement": "mean value (n = 4) of % of Compound 1 released", "setting": "Table 3g-2 (Storage Time = 2 weeks), second line, size 4 capsule, 0.5 mg Compound 1, Poloxamer 188:food grade GMS 70:30, 30 min", "value": 34.8, "unit": "%"}, {"measurement": "mean value (n = 4) of % of Compound 1 released", "setting": "Table 3g-2 (Storage Time = 2 weeks), second line, size 4 capsule, 0.5 mg Compound 1, Poloxamer 188:food grade GMS 70:30, 45 min", "value": 67.9, "unit": "%"}, {"measurement": "mean value (n = 4) of % of Compound 1 released", "setting": "Table 3g-2 (Storage Time = 2 weeks), second line, size 4 capsule, 0.5 mg Compound 1, Poloxamer 188:food grade GMS 70:30, 60 min", "value": 89.4, "unit": "%"}, {"measurement": "mean value (n = 4) of % of Compound 1 released", "setting": "Table 3i: size 4 capsule, 0.5 mg Compound 1, Poloxamer 188:food grade GMS 50:50, 30 min", "value": 7.5, "unit": "%"}, {"measurement": "mean value (n = 4) of % of Compound 1 released", "setting": "Table 3i: size 4 capsule, 0.5 mg Compound 1, Poloxamer 188:food grade GMS 50:50, 60 min", "value": 21.1, "unit": "%"}, {"measurement": "mean value (n = 4) of % of Compound 1 released", "setting": "Table 3i: size 4 capsule, 0.5 mg Compound 1, Poloxamer 188:food grade GMS 50:50, 120 min", "value": 41.1, "unit": "%"}, {"measurement": "mean value (n = 4) of % of Compound 1 released", "setting": "Table 3i: size 4 capsule, 0.5 mg Compound 1, Poloxamer 188:food grade GMS 50:50, 180 min", "value": 58.9, "unit": "%"}, {"measurement": "mean value (n = 4) of % of Compound 1 released", "setting": "Table 3i: size 4 capsule, 0.5 mg Compound 1, Poloxamer 188:food grade GMS 50:50, 240 min", "value": 75.3, "unit": "%"}, {"measurement": "mean value (n = 4) of % of Compound 1 released", "setting": "Table 3i: size 4 capsule, 0.5 mg Compound 1, Poloxamer 188:food grade GMS 50:50, 360 min", "value": 94.3, "unit": "%"}, {"measurement": "mean value (n = 4) of % of Compound 1 released", "setting": "Table 3i: size 4 capsule, 0.5 mg Compound 1, Poloxamer 188:food grade GMS 50:50, 480 min", "value": 100.0, "unit": "%"}, {"measurement": "mean value (n = 4) of % of Compound 1 released", "setting": "Table 3j: size 4 capsule, 0.5 mg Compound 1, Poloxamer 188:food grade GMS 50:50, 30 min", "value": 7.8, "unit": "%"}, {"measurement": "mean value (n = 4) of % of Compound 1 released", "setting": "Table 3j: size 4 capsule, 0.5 mg Compound 1, Poloxamer 188:food grade GMS 50:50, 60 min", "value": 19.5, "unit": "%"}, {"measurement": "mean value (n = 4) of % of Compound 1 released", "setting": "Table 3j: size 4 capsule, 0.5 mg Compound 1, Poloxamer 188:food grade GMS 50:50, 120 min", "value": 38.6, "unit": "%"}, {"measurement": "mean value (n = 4) of % of Compound 1 released", "setting": "Table 3j: size 4 capsule, 0.5 mg Compound 1, Poloxamer 188:food grade GMS 50:50, 180 min", "value": 56.8, "unit": "%"}, {"measurement": "mean value (n = 4) of % of Compound 1 released", "setting": "Table 3j: size 4 capsule, 0.5 mg Compound 1, Poloxamer 188:food grade GMS 50:50, 240 min", "value": 72.9, "unit": "%"}, {"measurement": "mean value (n = 4) of % of Compound 1 released", "setting": "Table 3j: size 4 capsule, 0.5 mg Compound 1, Poloxamer 188:food grade GMS 50:50, 360 min", "value": 90.7, "unit": "%"}, {"measurement": "mean value (n = 4) of % of Compound 1 released", "setting": "Table 3j: size 4 capsule, 0.5 mg Compound 1, Poloxamer 188:food grade GMS 50:50, 480 min", "value": 97.4, "unit": "%"}, {"measurement": "mean value (n = 6) of % of Compound 1 released", "setting": "Table 3k: size 4 capsule, 0.03 mg Compound 1, Poloxamer 188:food grade GMS 50:50, 30 min", "value": 8.5, "unit": "%"}, {"measurement": "mean value (n = 6) of % of Compound 1 released", "setting": "Table 3k: size 4 capsule, 0.03 mg Compound 1, Poloxamer 188:food grade GMS 50:50, 60 min", "value": 18.0, "unit": "%"}, {"measurement": "mean value (n = 6) of % of Compound 1 released", "setting": "Table 3k: size 4 capsule, 0.03 mg Compound 1, Poloxamer 188:food grade GMS 50:50, 120 min", "value": 39.3, "unit": "%"}, {"measurement": "mean value (n = 6) of % of Compound 1 released", "setting": "Table 3k: size 4 capsule, 0.03 mg Compound 1, Poloxamer 188:food grade GMS 50:50, 180 min", "value": 58.6, "unit": "%"}, {"measurement": "mean value (n = 6) of % of Compound 1 released", "setting": "Table 3k: size 4 capsule, 0.03 mg Compound 1, Poloxamer 188:food grade GMS 50:50, 240 min", "value": 75.2, "unit": "%"}]}
